tested on: breast cancer cell line MX-1; experiment: MX-1 cell line proliferation assay (3-day, Cell Titer Glo); assay type: cell-based; settings: Homo sapiens, MX1, MX-1 cells, 72 hours, read-out: Cellular proliferation: EC50
Procedure: The impact of compounds of the Examples on cancer cell proliferation was determined using the breast cancer cell line MX-1 (ATCC) in a 3-day proliferation assay. MX-1 cells were maintained in RPMI supplemented with 10% FBS at 37° C. and an atmosphere of 5% CO2. For compound testing, MX-1 cells were plated in 96-well black bottom plates at a density of 5000 cells/well in 90 μL of culture media and incubated at 37° overnight to allow cell adhesion and spreading. Compound dilution series were prepared in DMSO via a 3-fold serial dilution from 3 mM to […]. The DMSO dilution series were then diluted 1:100 in phosphate buffered saline, and 10 μL of the resulted solution were added to the appropriate wells of the MX-1 cell plate. The final compound concentrations in the wells were 3, 1, 0.3, 0.1, 0.03, 0.01, 0.003, 0.001, 0.0003, 0.0001, and 0.00003 μM.
Luminescence readings from the Cell Titer Glo assay were normalized to the DMSO treated cells and analyzed using the GraphPad Prism software with sigmoidal curve fitting to obtain EC50s. The minimum significant ratio (MSR) was determined to evaluate assay reproducibility (Eastwood et al., (2006) J Biomol Screen, 11: 253-261). The overall MSR was determined to be 2.1 and a moving MSR (last six run MSR overtime) has been <2. The EC50 values are reported in Table 1 for the indicated compounds.

Compared with `CCOc1cc(=O)n(C)cc1-c1cc(N(Cc2cnn(C)c2)S(=O)(=O)CC)ccc1Oc1ccc(F)cc1F` [Example 97, N-[4-(2,4-difluorophenoxy)-3-(4-ethoxy-1-methyl-6-oxo-1,6-dihydropyridin-3-yl)phenyl]-N-[(1-methyl-1H-pyrazol-4-yl)methyl]ethanesulfonamide], `CCOc1cc(=O)n(C)cc1-c1cc(N(Cc2cn(C)cn2)S(=O)(=O)CC)ccc1Oc1ccc(F)cc1F` [Example 100, N-[4-(2,4-difluorophenoxy)-3-(4-ethoxy-1-methyl-6-oxo-1,6-dihydropyridin-3-yl)phenyl]-N-[(1-methyl-1H-imidazol-4-yl)methyl]ethanesulfonamide] is higher in EC50: 0.55 µM for the first, greater than 1 µM for the second.

`CCOc1cc(=O)n(C)cc1-c1cc(N(Cc2cnn(C)c2)S(=O)(=O)Cc2ccccc2)ccc1Oc1ccc(F)cc1F` [Example 98, N-[4-(2,4-difluorophenoxy)-3-(4-ethoxy-1-methyl-6-oxo-1,6-dihydropyridin-3-yl)phenyl]-N-[(1-methyl-1H-pyrazol-4-yl)methyl]-1-phenylmethanesulfonamide] and `CCOc1cc(=O)n(C)cc1-c1cc(N(Cc2cn(C)cn2)S(=O)(=O)Cc2ccccc2)ccc1Oc1ccc(F)cc1F` [Example 101, N-[4-(2,4-difluorophenoxy)-3-(4-ethoxy-1-methyl-6-oxo-1,6-dihydropyridin-3-yl)phenyl]-N-[(1-methyl-1H-imidazol-4-yl)methyl]-1-phenylmethanesulfonamide] cannot be ordered by EC50: greater than 1 µM for the first, greater than 1 µM for the second.

`CCOc1cc(=O)n(C)cc1-c1cc(N(Cc2nccs2)S(=O)(=O)CC)ccc1Oc1ccc(F)cc1F` [Example 99, N-[4-(2,4-difluorophenoxy)-3-(4-ethoxy-1-methyl-6-oxo-1,6-dihydropyridin-3-yl)phenyl]-N-(1,3-thiazol-2-ylmethyl)ethanesulfonamide] and `CCOc1cc(=O)n(C)cc1-c1cc(N(C[C@H]2COCCO2)S(=O)(=O)CC)ccc1Oc1ccc(F)cc1F` [Example 102, N-[4-(2,4-difluorophenoxy)-3-(4-ethoxy-1-methyl-6-oxo-1,6-dihydropyridin-3-yl)phenyl]-N-[(2S)-1,4-dioxan-2-ylmethyl]ethanesulfonamide] are within 1.5-fold of each other in EC50: 0.555 µM for the first, 0.71 µM for the second.

`CCOc1cc(=O)n(C)cc1-c1cc(N(CC2CCOCC2)S(=O)(=O)CC)ccc1Oc1ccc(F)cc1F` [Example 103, N-[4-(2,4-difluorophenoxy)-3-(4-ethoxy-1-methyl-6-oxo-1,6-dihydropyridin-3-yl)phenyl]-N-(tetrahydro-2H-pyran-4-ylmethyl)ethanesulfonamide] gave an EC50 of 0.677 µM.

From patent publication US9428514B2, “Bromodomain inhibitors” (AbbVie Inc., priority 2013, dated 2016)
